Assay results taken from patent US6733777B2, “Cationic reagents of transfection” (Qiagen GmbH, priority 1996, dated 2004).
Where “and” joins values, the source holds several entries; their conditions need not be identical. Equal values may be shown once. Read-outs that look alike come from different tables or passages of the source.

Key:
HeLaS3 cells [1] = settings: liposome with DOPE, 0.5 μg pCMVβ
Protocol: (§1) Without sonication, liposomes were prepared at 60° C. by combining DOPE with one of the following:
(§2) The resulting liposomes were used to transfect HeLaS3 and Huh7 cells in vitro with the reporter plasmid pCMVβ (Clontech). Transfection efficiency values, obtained by taking OD measurements after cell-lysis and β-Gal activity assay, were compared to efficiencies obtained in parallel with a commercially available liposome-preparation (Lipofectamine, Gibco LTI) and given as percentage of Lipofectamine efficiency. In each transfection, 0.5 μg of pCMVβ (isolated with EndoFree, QIAGEN) was used per well of a 96 well plate. The DNA was diluted to 50 μl with DMEM medium (Gibco LTI) and combined with 1, 2, 3 and 4 μl of the liposome preparations subsequently diluted to 50 μl with DMEM medium. DNA and liposome solutions were mixed and applied to the cells for 6 hours at 37° C., 5% CO2. Afterwards, medium was changed to DMEM containing 10% fetal calf serum. Cells were lysed after 48 h incubation at 37° C., 5% CO2.
(§3) Twofold determinations each were performed. The values were averaged and the highest efficiency (optimum) within a row was given as percentage value of the highest efficiency (optimum) obtained with Lipofectamine.

Huh7 cells [2] = settings: liposome with DOPE, 0.5 μg pCMVβ
Protocol: as §1, §2, §3

HeLaS3 cells [3] = assay: Transfection of HeLaS3 cells with pCMVβ, β-Gal activity assay (variation of counter ion); type: cell-based; settings: 10-2-10 cytofectin with the given counter ion, liposome with DOPE, 0.5 μg pCMVβ
Protocol: Liposomes were used to transfect HeLaS3 cells in vitro with the reporter plasmid pCMVβ (Clontech). […] Cells were incubated for 48 hours at 37° C., 5% CO2 and then lysed.
In similar studies in HeLaS3 cells, the same vector was transfected with liposomes comprising bromide counter ions and the cytofectin, 10-2-10 Ethandiyl-1,2-bis(decyl dimethylammonium).

Huh7 cells [4] = test system: Huh7 cells
Protocol: The resulting liposomes were used to transfect Huh7 cells in vitro with the reporter plasmid pCMVβ (Clontech). Transfection efficiencies, as obtained by OD measurements after cell-lysis and β-Gal activity assay, were compared to efficiencies obtained in parallel with a commercially available liposome-preparation (Lipofectamine, Gibco LTI) and given as percentage of Lipofectamine efficiency. For each transfection, 0.5 μg of pCMVβ (isolated with EndoFree, QIAGEN) was used per well of a 96 well plate. The DNA was diluted to 50 μl with DMEM medium (Gibco LTI) and combined with 1, 2, 3 and 4 μl of the liposome preparations subsequently diluted to 50 μl with DMEM medium. DNA and liposome solutions were mixed and applied to the cells for 6 hours at 37° C., 5% CO2. Afterwards, medium was changed to DMEM containing 10% fetal calf serum. Cells were lysed after 48 h incubation at 37° C., 5% CO2. Twofold determinations each were performed. The values were averaged and the highest efficiency (optimum) within a row was given as percentage value of the highest efficiency (optimum) obtained with Lipofectamine.

COS7 cells = settings: liposome with DOPE, 1 μg pCMVβ, optimum of 1-4 μl liposome
Protocol: (§4) Liposomes were prepared at 60° C. by combining 10-3-10 (Propandiyl-1,3-bis(decyl dimethylammonium bromide) and DOPE (as described in Example 3), with and without sonication.
(§5) Liposomes were used to transfect HeLaS3 and COS7 cells in vitro with the reporter plasmid pCMVβ (Clontech). Transfection efficiencies, as obtained by optical density (OD) measurements after cell-lysis and β-Gal activity assay, were compared to efficiencies obtained in parallel with a commercially available liposome-preparation (Lipofectamine, Gibco LTI) and given as percentage of Lipofectamine efficiency. For each transfection, 1 μg of pCMVβ (isolated with EndoFree, QIAGEN) was used per well of a 96-well plate. The DNA was diluted to 50 μl with DMEM medium (Gibco LTI) and combined with 1, 2, 3 and 4 μl of the liposome preparations subsequently diluted to 50 μl with DMEM medium. DNA and liposome solutions were mixed and applied to the cells for 6 hours at 37° C., 5% CO2. Afterwards, medium was changed to DMEM containing 10% fetal calf serum. Cells were lysed after 48 h incubation at 37° C., 5% CO2.
as §3

HeLaS3 cells [5] = settings: for Results (%) HeLaS3 (transfection efficiency as percentage of Lipofectamine efficiency): liposome with DOPE, 1 μg pCMVβ, optimum of 1-4 μl liposome
Protocol: as §4, §5, §3

[6] = X(DOPE) 0.50, without sonication
[7] = X(DOPE) 0.60, without sonication
[8] = X(DOPE) 0.70, without sonication
[9] = X(DOPE) 0.80, without sonication

Compound	Results (%) HeLaS3 (transfection efficiency as percentage of Lipofectamine efficiency) (HeLaS3 cells [1]; [6])	Results (%) HeLaS3 (transfection efficiency as percentage of Lipofectamine efficiency) (HeLaS3 cells [1]; [7])	Results (%) HeLaS3 (transfection efficiency as percentage of Lipofectamine efficiency) (HeLaS3 cells [1]; [8])	Results (%) HeLaS3 (transfection efficiency as percentage of Lipofectamine efficiency) (HeLaS3 cells [1]; [9])	Results (%) Huh7 (transfection efficiency as percentage of Lipofectamine efficiency) (Huh7 cells [2]; [6])	Results (%) Huh7 (transfection efficiency as percentage of Lipofectamine efficiency) (Huh7 cells [2]; [7])	Results (%) Huh7 (transfection efficiency as percentage of Lipofectamine efficiency) (Huh7 cells [2]; [8])	Results (%) Huh7 (transfection efficiency as percentage of Lipofectamine efficiency) (Huh7 cells [2]; [9])	other results
Br [10-2-10, Ethanediyl-1,2-bis(decyldimethylammonium bromide)]	216%	286%	165%	178%	142%	127%	111%	115%	Results (%) (optimal transfection efficiency as percentage of the highest efficiency obtained by Lipofectamine) (HeLaS3 cells [3]; [6]): 216%; Results (%) (optimal transfection efficiency as percentage of the highest efficiency obtained by Lipofectamine) (HeLaS3 cells [3]; [7]): 286%; Results (%) (optimal transfection efficiency as percentage of the highest efficiency obtained by Lipofectamine) (HeLaS3 cells [3]; [8]): 165%; Results (%) (optimal transfection efficiency as percentage of the highest efficiency obtained by Lipofectamine) (HeLaS3 cells [3]; [9]): 178%; Result (%) (transfection efficiency as percentage of Lipofectamine efficiency) (Huh7 cells [4]): 111% and 115%; Result (%) (transfection efficiency as percentage of Lipofectamine efficiency) (Huh7 cells [4]; Huh7, liposome with DOPE, X(DOPE) 0.50, without sonication, 0.5 μg pCMVβ): 142%; Result (%) (transfection efficiency as percentage of Lipofectamine efficiency) (Huh7 cells [4]; Huh7, liposome with DOPE, X(DOPE) 0.60, without sonication, 0.5 μg pCMVβ): 127%
Butanediyl-1,4-bis(decyl dimethyl-ammonium bromide) [10-4-10]	200%	257%	200%	123%	76%	62%	54%	34%	–
Propandiyl-1,3-bis(decyl dimethylammonium bromide) [10-3-10]	241%	293%	223%	118%	80%	83%	54%	39%	Results % COS7 (transfection efficiency as percentage of Lipofectamine efficiency) (COS7 cells; X(DOPE) 0.20, sonic. for 300 s): 6%; Results % COS7 (transfection efficiency as percentage of Lipofectamine efficiency) (COS7 cells; X(DOPE) 0.20, w/o sonication): 6%; Results % COS7 (transfection efficiency as percentage of Lipofectamine efficiency) (COS7 cells; X(DOPE) 0.35, sonic. for 300 s): 6%; Results % COS7 (transfection efficiency as percentage of Lipofectamine efficiency) (COS7 cells; X(DOPE) 0.35, w/o sonication): 6%; Results % COS7 (transfection efficiency as percentage of Lipofectamine efficiency) (COS7 cells; X(DOPE) 0.50, sonic. for 300 s): 6%; Results % COS7 (transfection efficiency as percentage of Lipofectamine efficiency) (COS7 cells; X(DOPE) 0.50, w/o sonication): 7%; Results % COS7 (transfection efficiency as percentage of Lipofectamine efficiency) (COS7 cells; X(DOPE) 0.65, sonic. for 300 s): 8%; Results % COS7 (transfection efficiency as percentage of Lipofectamine efficiency) (COS7 cells; X(DOPE) 0.65, w/o sonication): 26%; Results (%) HeLaS3 (transfection efficiency as percentage of Lipofectamine efficiency) (HeLaS3 cells [5]; X(DOPE) 0.20, sonic. for 300 s): 39%; Results (%) HeLaS3 (transfection efficiency as percentage of Lipofectamine efficiency) (HeLaS3 cells [5]; X(DOPE) 0.20, w/o sonication): 39%; Results (%) HeLaS3 (transfection efficiency as percentage of Lipofectamine efficiency) (HeLaS3 cells [5]; X(DOPE) 0.35, sonic. for 300 s): 39%; Results (%) HeLaS3 (transfection efficiency as percentage of Lipofectamine efficiency) (HeLaS3 cells [5]; X(DOPE) 0.35, w/o sonication): 61%; Results (%) HeLaS3 (transfection efficiency as percentage of Lipofectamine efficiency) (HeLaS3 cells [5]; X(DOPE) 0.50, sonic. for 300 s): 47%; Results (%) HeLaS3 (transfection efficiency as percentage of Lipofectamine efficiency) (HeLaS3 cells [5]; X(DOPE) 0.50, w/o sonication): 115%; Results (%) HeLaS3 (transfection efficiency as percentage of Lipofectamine efficiency) (HeLaS3 cells [5]; X(DOPE) 0.65, sonic. for 300 s): 83%; Results (%) HeLaS3 (transfection efficiency as percentage of Lipofectamine efficiency) (HeLaS3 cells [5]; X(DOPE) 0.65, w/o sonication): 275%; cell-type specificity compared with Lipofectamine (HeLaS3 cells [5]; liposomes with DOPE, HeLaS3 versus COS7): more cell-type specific than Lipofectamine
